Results from patent publication EP0055702B1, “Antithrombotic treatment” (priority 1980, dated 1982).

How the values were obtained:
[1] = test system: thrombus formation in the jugular vein; test: Anti-venous thrombotic effect, 125I fibrinogen technique in rabbits; type: in vivo
Source text: Also, a thrombosis is detectable, for example, from a patient's conditions symptomatically perceivable by a skilled medical practitioner and well known to the art of medicine. Objectively, various methods are available, including venography, impedance plethysmography, doppler ultrasound and the 1251-fibrinogen test (see, for example, the articles by Kakkar, "Archives of Surgery", 104, page 152 (1972) and by Kelton, J.G. et al, Journal of Clinical Investigation, Vol. 62, pgs. 892-895, (1978)).
The anti-venous thrombotic effect of sodium bisulphite was evaluated in rabbits by using the 1^125 fibrinogen technique described above.
Each rabbit was continuously infused with aqueous sodium bisulphite solution at the rate of 460 mg/kg per hr. (2.97 grams) (animal body weight 2.3 kg).
After 5 hours, the animal was sacrificed and the radioactive fibrinogen accumulated in the damaged jugular vein was determined. The radioactivity in the contra-lateral (undamaged) jugular vein was also determined, to serve as a control. Concurrently, another rabbit was subjected to the same procedure, but was given only a standard sodium chloride solution, as a control.

F VII = biological target: T1, F VII (Homo sapiens, UniProt P08709); test: Factor VII assay, Example 4; type: biochemical; conditions: for F VII: Control 73
T1 construct: from tissue; host or cells: human plasma
T1 sequence (P08709 61-466): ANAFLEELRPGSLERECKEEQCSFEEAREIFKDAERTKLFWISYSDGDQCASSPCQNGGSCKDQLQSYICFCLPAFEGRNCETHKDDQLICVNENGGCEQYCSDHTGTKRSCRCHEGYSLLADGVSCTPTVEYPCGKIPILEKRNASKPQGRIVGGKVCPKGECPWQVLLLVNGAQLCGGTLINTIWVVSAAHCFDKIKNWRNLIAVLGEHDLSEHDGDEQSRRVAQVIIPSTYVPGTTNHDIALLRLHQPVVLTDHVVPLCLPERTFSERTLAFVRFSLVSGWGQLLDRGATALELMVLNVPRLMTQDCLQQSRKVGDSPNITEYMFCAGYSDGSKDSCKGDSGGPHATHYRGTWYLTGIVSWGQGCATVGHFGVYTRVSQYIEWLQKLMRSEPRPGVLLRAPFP
Source text: (§1) The evaluation procedure used is that described in "Human Blood Coagulation, Haemostasis and Thrombosis", edited by Rosemary Biggs, published by Blackwell Scientific Publications, Oxford, England (2nd Edition), pages 670-705, 1976. […]

Fibrinogen = biological target: T2, Fibrinogen (Homo sapiens, UniProt P02671+P02675+P02679); test: Fibrinogen assay, Example 4; type: biochemical; conditions: Control 218; for Fibrogen: solution D
T2 construct: from tissue; host or cells: human plasma
T2 sequence (P02671 20-629 limits assumed): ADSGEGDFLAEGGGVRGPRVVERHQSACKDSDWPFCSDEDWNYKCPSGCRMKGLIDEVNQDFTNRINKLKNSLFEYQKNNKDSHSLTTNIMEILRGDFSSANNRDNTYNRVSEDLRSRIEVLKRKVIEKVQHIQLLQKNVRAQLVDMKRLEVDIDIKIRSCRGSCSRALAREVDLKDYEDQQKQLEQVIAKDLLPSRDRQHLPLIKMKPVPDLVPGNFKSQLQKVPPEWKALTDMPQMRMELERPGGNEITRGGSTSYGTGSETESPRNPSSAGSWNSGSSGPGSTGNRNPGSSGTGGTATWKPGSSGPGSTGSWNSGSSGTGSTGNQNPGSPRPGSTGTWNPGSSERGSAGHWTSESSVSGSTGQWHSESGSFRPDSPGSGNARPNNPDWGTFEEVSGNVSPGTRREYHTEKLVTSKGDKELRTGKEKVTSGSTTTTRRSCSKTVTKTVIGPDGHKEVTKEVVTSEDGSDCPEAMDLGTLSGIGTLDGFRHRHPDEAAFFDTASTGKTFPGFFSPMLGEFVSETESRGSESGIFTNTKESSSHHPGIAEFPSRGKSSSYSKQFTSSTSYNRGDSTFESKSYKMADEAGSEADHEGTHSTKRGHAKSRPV
T2 sequence (P02675 31-491): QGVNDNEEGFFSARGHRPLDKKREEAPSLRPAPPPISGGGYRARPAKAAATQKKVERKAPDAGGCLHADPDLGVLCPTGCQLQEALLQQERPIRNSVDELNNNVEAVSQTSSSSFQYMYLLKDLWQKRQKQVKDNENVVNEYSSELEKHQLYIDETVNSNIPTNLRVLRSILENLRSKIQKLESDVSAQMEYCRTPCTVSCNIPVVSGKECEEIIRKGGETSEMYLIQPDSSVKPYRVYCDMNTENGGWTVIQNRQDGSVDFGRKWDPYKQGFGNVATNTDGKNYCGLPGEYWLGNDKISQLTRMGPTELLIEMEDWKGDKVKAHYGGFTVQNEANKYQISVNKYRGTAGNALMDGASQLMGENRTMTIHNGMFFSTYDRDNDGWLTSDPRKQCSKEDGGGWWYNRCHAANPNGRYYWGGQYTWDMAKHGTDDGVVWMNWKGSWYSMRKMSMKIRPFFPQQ
T2 sequence (P02679 27-453): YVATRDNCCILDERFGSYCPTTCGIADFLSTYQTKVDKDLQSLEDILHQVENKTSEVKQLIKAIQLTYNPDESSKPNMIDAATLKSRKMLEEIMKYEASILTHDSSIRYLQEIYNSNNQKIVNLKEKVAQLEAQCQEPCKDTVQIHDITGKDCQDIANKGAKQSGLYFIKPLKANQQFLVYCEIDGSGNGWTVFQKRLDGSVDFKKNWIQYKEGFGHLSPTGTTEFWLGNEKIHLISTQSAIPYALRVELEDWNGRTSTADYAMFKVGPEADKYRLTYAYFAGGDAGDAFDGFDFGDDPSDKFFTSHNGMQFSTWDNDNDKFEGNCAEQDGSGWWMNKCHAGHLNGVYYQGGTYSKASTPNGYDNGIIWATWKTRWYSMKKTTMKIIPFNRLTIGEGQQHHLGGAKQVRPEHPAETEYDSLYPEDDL
Source text: as §1

[2] = chemical grade sodium bisulphite 0.01 mg/ml
[3] = chemical grade sodium bisulphite 0.05 mg/ml
[4] = chemical grade sodium bisulphite 0.1 mg/ml
[5] = chemical grade sodium bisulphite 0.5 mg/ml
[6] = chemical grade sodium bisulphite 1.0 mg/ml
[7] = chemical grade sodium bisulphite 5.0 mg/ml

Sodium bisulphite
radioactivity (radioactive fibrinogen) in damaged jugular vein, control rabbit relative to infused rabbit ([1]; continuous infusion 460 mg/kg per hr, 5 hours, control given sodium chloride solution): 7 times | death of other rabbits during infusion ([1]; other rabbits similarly evaluated, apparently overdosing): died before the experiment was completed | effect on Factor VII (F VII; 0.5 mg per ml, human plasma): significant inhibitory effect | F VII (F VII; Sodium bisulphite 0.01 mg/ml, solution D): 67% | F VII (F VII; Sodium bisulphite 0.05 mg/ml, solution D): 57% | F VII (F VII; Sodium bisulphite 0.1 mg/ml, solution D): 51% | F VII (F VII; Sodium bisulphite 0.5 mg/ml, solution D): 23% | F VII (F VII; Sodium bisulphite 1.0 mg/ml, solution D): 8% | F VII (F VII; Sodium bisulphite 5.0 mg/ml, solution D): 1% | F VII (F VII; [2]): 62 | F VII (F VII; [3]): 63 | F VII (F VII; [4]): 53 | F VII (F VII; [5]): 17 | F VII (F VII; [6]): 7 | F VII (F VII; [7]): 2 | Fibrogen (Fibrinogen; Sodium bisulphite 0.01 mg/ml): 222 mg% | Fibrogen (Fibrinogen; Sodium bisulphite 0.05 mg/ml): 228 mg% | Fibrogen (Fibrinogen; Sodium bisulphite 0.1 mg/ml): 217 mg% | Fibrogen (Fibrinogen; Sodium bisulphite 0.5 mg/ml): 190 mg% | Fibrogen (Fibrinogen; Sodium bisulphite 1.0 mg/ml): 185 mg% | Fibrogen (Fibrinogen; Sodium bisulphite 5.0 mg/ml): 130 mg% | Fibrinogen (Fibrinogen; [2]): 228 mg% | Fibrinogen (Fibrinogen; [3]): 245 mg% | Fibrinogen (Fibrinogen; [4]): 218 mg% | Fibrinogen (Fibrinogen; [5]): 182 mg% | Fibrinogen (Fibrinogen; [6]): 184 mg% | Fibrinogen (Fibrinogen; [7]): 119 mg%
